Data reported in paper PMC11374673, “Discovery of isoquinoline sulfonamides as allosteric gyrase inhibitors with activity against fluoroquinolone-resistant bacteria” (Nature Chemistry, 2024).
Where “and” joins values, the source holds several entries; their conditions need not be identical. Identical values can stand only once.

Tested on: E. coli W3110
Assay: Checkerboard assay with PMBN
Conditions: for Checkerboard well reading (growth), Average values: average of 3 wells; for Checkerboard well reading (growth): single wells (triplicate)
[1] = LEI-801 0.78125 µM + PMBN 0.5 µM
[2] = LEI-801 0.78125 µM + PMBN 16 µM
[3] = LEI-801 0.78125 µM + PMBN 32 µM
[4] = LEI-801 1.5625 µM + PMBN 0.5 µM

Question: How did the MIC (Escherichia coli, W3110) turn out when `O=S(=O)(NC[C@H]1CC[C@@H](c2ccc(-c3ccc(F)nc3)cc2)N1)c1cccc2cnccc12` [LEI-801] was run?
Answer: Its MIC is 200 µM.

Question: And the “Checkerboard well reading (growth), Average values” (LEI-801 0.78125 µM + PMBN 0 µM)?
Answer: Its value is 0.7994.

Question: What about the “Checkerboard well reading (growth)” value (LEI-801 0.78125 µM + PMBN 0 µM) of the same compound?
Answer: The value was 0.8278 and 0.8 and 0.7705.

Question: And the “Checkerboard well reading (growth), Average values” [1]?
Answer: The value was 0.7351.

Question: What about the “Checkerboard well reading (growth)” value [1] of the same compound?
Answer: Its value is 0.7319 and 0.7576 and 0.7157.

Question: What about the “Checkerboard well reading (growth), Average values” (LEI-801 0.78125 µM + PMBN 1 µM) of the same compound?
Answer: The value was 0.8267.

Question: What about the “Checkerboard well reading (growth)” value (LEI-801 0.78125 µM + PMBN 1 µM) of the same compound?
Answer: Its value is 0.8444 and 0.8247 and 0.811.

Question: And the “Checkerboard well reading (growth), Average values” (LEI-801 0.78125 µM + PMBN 2 µM)?
Answer: The value was 0.8646.

Question: What about the “Checkerboard well reading (growth)” value (LEI-801 0.78125 µM + PMBN 2 µM) of the same compound?
Answer: Its value is 0.8699 and 0.8873 and 0.8367.

Question: What about the “Checkerboard well reading (growth), Average values” (LEI-801 0.78125 µM + PMBN 4 µM) of the same compound?
Answer: The value was 0.6877.

Question: What about the “Checkerboard well reading (growth)” value (LEI-801 0.78125 µM + PMBN 4 µM) of the same compound?
Answer: Its value is 0.7078 and 0.6767 and 0.6785.

Question: What about the “Checkerboard well reading (growth), Average values” (LEI-801 0.78125 µM + PMBN 8 µM) of the same compound?
Answer: Its value is 0.5094.

Question: What about the “Checkerboard well reading (growth)” value (LEI-801 0.78125 µM + PMBN 8 µM) of the same compound?
Answer: Its value is 0.4316 and 0.5477 and 0.5488.

Question: And the “Checkerboard well reading (growth), Average values” [2]?
Answer: Its value is 0.3746.

Question: What about the “Checkerboard well reading (growth)” value [2] of the same compound?
Answer: Its value is 0.3718 and 0.3921 and 0.3599.

Question: And the “Checkerboard well reading (growth), Average values” [3]?
Answer: The value was 0.3716.

Question: What about the “Checkerboard well reading (growth)” value [3] of the same compound?
Answer: The value was 0.3691 and 0.3426 and 0.4032.

Question: And the “Checkerboard well reading (growth), Average values” (LEI-801 1.5625 µM + PMBN 0 µM)?
Answer: The value was 0.7861.

Question: And the “Checkerboard well reading (growth)” value (LEI-801 1.5625 µM + PMBN 0 µM)?
Answer: The value was 0.8385 and 0.7794 and 0.7404.

Question: And the “Checkerboard well reading (growth), Average values” [4]?
Answer: The value was 0.7438.

Question: What about the “Checkerboard well reading (growth)” value [4] of the same compound?
Answer: The value was 0.7318 and 0.7541 and 0.7454.

Question: What about the “Checkerboard well reading (growth), Average values” (LEI-801 1.5625 µM + PMBN 1 µM) of the same compound?
Answer: Its value is 0.7641.

Question: And the “Checkerboard well reading (growth)” value (LEI-801 1.5625 µM + PMBN 1 µM)?
Answer: Its value is 0.7579 and 0.7961 and 0.7382.

Question: What about the “Checkerboard well reading (growth), Average values” (LEI-801 1.5625 µM + PMBN 2 µM) of the same compound?
Answer: The value was 0.7789.

Question: What about the “Checkerboard well reading (growth)” value (LEI-801 1.5625 µM + PMBN 2 µM) of the same compound?
Answer: Its value is 0.7943 and 0.7704 and 0.772.

Question: And the “Checkerboard well reading (growth), Average values” (LEI-801 1.5625 µM + PMBN 4 µM)?
Answer: The value was 0.5724.

Question: What about the “Checkerboard well reading (growth)” value (LEI-801 1.5625 µM + PMBN 4 µM) of the same compound?
Answer: The value was 0.635 and 0.5325 and 0.5498.

Question: What about the “Checkerboard well reading (growth), Average values” (LEI-801 1.5625 µM + PMBN 8 µM) of the same compound?
Answer: The value was 0.3746.

Question: And the “Checkerboard well reading (growth)” value (LEI-801 1.5625 µM + PMBN 8 µM)?
Answer: Its value is 0.3243 and 0.3533 and 0.4462.

Question: And the “Checkerboard well reading (growth), Average values” (LEI-801 1.5625 µM + PMBN 16 µM)?
Answer: Its value is 0.3394.

Question: And the “Checkerboard well reading (growth)” value (LEI-801 1.5625 µM + PMBN 16 µM)?
Answer: Its value is 0.3897 and 0.339 and 0.2896.

Question: And the “Checkerboard well reading (growth), Average values” (LEI-801 1.5625 µM + PMBN 32 µM)?
Answer: Its value is 0.3074.

Question: And the “Checkerboard well reading (growth)” value (LEI-801 1.5625 µM + PMBN 32 µM)?
Answer: The value was 0.2616 and 0.2961 and 0.3644.

Question: What about the “Checkerboard well reading (growth), Average values” (LEI-801 3.125 µM + PMBN 0 µM) of the same compound?
Answer: The value was 0.7892.

Question: And the “Checkerboard well reading (growth), Average values” (LEI-801 3.125 µM + PMBN 0.5 µM)?
Answer: Its value is 0.6976.

Question: What about the “Checkerboard well reading (growth), Average values” (LEI-801 3.125 µM + PMBN 1 µM) of the same compound?
Answer: Its value is 0.7008.

Question: What about the “Checkerboard well reading (growth), Average values” (LEI-801 3.125 µM + PMBN 2 µM) of the same compound?
Answer: Its value is 0.5725.

Question: What about the “Checkerboard well reading (growth), Average values” (LEI-801 3.125 µM + PMBN 4 µM) of the same compound?
Answer: Its value is 0.4871.

Question: What about the “Checkerboard well reading (growth), Average values” (LEI-801 3.125 µM + PMBN 8 µM) of the same compound?
Answer: The value was 0.2805.

Question: What about the “Checkerboard well reading (growth), Average values” (LEI-801 3.125 µM + PMBN 16 µM) of the same compound?
Answer: Its value is 0.2397.

Question: What about the “Checkerboard well reading (growth), Average values” (LEI-801 3.125 µM + PMBN 32 µM) of the same compound?
Answer: Its value is 0.2242.

Question: What about the “Checkerboard well reading (growth), Average values” (LEI-801 6.25 µM + PMBN 0 µM) of the same compound?
Answer: Its value is 0.7739.

Question: What about the “Checkerboard well reading (growth), Average values” (LEI-801 6.25 µM + PMBN 0.5 µM) of the same compound?
Answer: Its value is 0.6373.

Question: And the “Checkerboard well reading (growth), Average values” (LEI-801 6.25 µM + PMBN 1 µM)?
Answer: Its value is 0.4799.

Question: And the “Checkerboard well reading (growth), Average values” (LEI-801 6.25 µM + PMBN 2 µM)?
Answer: Its value is 0.2823.

Question: And the “Checkerboard well reading (growth), Average values” (LEI-801 6.25 µM + PMBN 4 µM)?
Answer: Its value is 0.1833.

Question: What about the “Checkerboard well reading (growth), Average values” (LEI-801 6.25 µM + PMBN 8 µM) of the same compound?
Answer: The value was 0.1357.

Question: What about the “Checkerboard well reading (growth), Average values” (LEI-801 6.25 µM + PMBN 16 µM) of the same compound?
Answer: Its value is 0.1386.

Question: And the “Checkerboard well reading (growth), Average values” (LEI-801 6.25 µM + PMBN 32 µM)?
Answer: The value was 0.1521.

Question: And the “Checkerboard well reading (growth), Average values” (LEI-801 12.5 µM + PMBN 0 µM)?
Answer: The value was 0.6968.

Question: And the “Checkerboard well reading (growth), Average values” (LEI-801 12.5 µM + PMBN 0.5 µM)?
Answer: Its value is 0.5454.

Question: What about the “Checkerboard well reading (growth), Average values” (LEI-801 12.5 µM + PMBN 1 µM) of the same compound?
Answer: The value was 0.4004.

Question: What about the “Checkerboard well reading (growth), Average values” (LEI-801 12.5 µM + PMBN 2 µM) of the same compound?
Answer: Its value is 0.1564.

Question: What about the “Checkerboard well reading (growth)” value (LEI-801 12.5 µM + PMBN 2 µM) of the same compound?
Answer: The value was 0.1441 and 0.1568 and 0.1684.

Question: And the “Checkerboard well reading (growth), Average values” (LEI-801 12.5 µM + PMBN 4 µM)?
Answer: Its value is 0.1485.

Question: And the “Checkerboard well reading (growth)” value (LEI-801 12.5 µM + PMBN 4 µM)?
Answer: Its value is 0.1572.

Question: And the “Checkerboard well reading (growth), Average values” (LEI-801 12.5 µM + PMBN 8 µM)?
Answer: The value was 0.1397.

Question: And the “Checkerboard well reading (growth), Average values” (LEI-801 12.5 µM + PMBN 16 µM)?
Answer: The value was 0.1401.

Question: And the “Checkerboard well reading (growth), Average values” (LEI-801 12.5 µM + PMBN 32 µM)?
Answer: The value was 0.1472.

Question: What about the “Checkerboard well reading (growth), Average values” (LEI-801 25 µM + PMBN 0 µM) of the same compound?
Answer: The value was 0.6592.

Question: And the “Checkerboard well reading (growth)” value (LEI-801 25 µM + PMBN 0 µM)?
Answer: Its value is 0.7013 and 0.6648 and 0.6113.

Question: What about the “Checkerboard well reading (growth), Average values” (LEI-801 25 µM + PMBN 0.5 µM) of the same compound?
Answer: The value was 0.5495.

Question: What about the “Checkerboard well reading (growth)” value (LEI-801 25 µM + PMBN 0.5 µM) of the same compound?
Answer: Its value is 0.5605 and 0.5428 and 0.5453.

Question: And the “Checkerboard well reading (growth), Average values” (LEI-801 25 µM + PMBN 1 µM)?
Answer: Its value is 0.1537.

Question: What about the “Checkerboard well reading (growth)” value (LEI-801 25 µM + PMBN 1 µM) of the same compound?
Answer: Its value is 0.153 and 0.1529 and 0.1554.

Question: What about the “Checkerboard well reading (growth), Average values” (LEI-801 25 µM + PMBN 2 µM) of the same compound?
Answer: The value was 0.155.

Question: What about the “Checkerboard well reading (growth)” value (LEI-801 25 µM + PMBN 2 µM) of the same compound?
Answer: The value was 0.1518 and 0.1536 and 0.1596.
